# Experimental data from US12162935B2, “Regimens, compositions and methods with capsaicin and TNF-alpha inhibitor” (priority 2018, dated 2024).
# How the values were obtained:
# outer hair cells (OHCs) = assay: Outer hair cell damage by SEM and whole mount hair cell count; format: in vivo, rat
# From the text: Immediately after completion of post-treatment ABRs, rats were euthanized and their cochleae were harvested and the specimens processed as described previously by [Kamimura et al.]. Sputter-coated cochlea were viewed and photographed with a Hitachi S-500 scanning electron microscope (Hitachi Ltd.). The resulting scanning electron micrographs were examined to determine qualitative morphological characteristics in various regions including the basal, middle, and apical turns of the rat cochlea.
# Two representative areas of the basal turn, middle turn, and apex and hook portion were photographed. In each area, outer hair cells (OHCs) were counted in an area that was 10 pillar cell heads in length. The results are presented as the percentage hair cell damage per cochlear turn. At least three cochleae from different animals per treatment group were used.
# To study the organization of the outer hair cells and inner hair cells, the cochlear whole mount technique was used. The cochleae was fixed in fresh 4% paraformaldehyde overnight, and then decalcified in […] EDTA for 2 weeks, (pH 7.3) while stirring at room temperature for 2 weeks. After decalcification, the cochleae was microdissected into basal, middle, and apical turns for whole-mount preparation.
# For further processing, segments were washed with 1×PBS twice for 5 mins. For blocking, the segments were incubated in 10% blocking serum (horse serum) for 3 hrs at room temperature. The segments were incubated with primary antibody in 0.2% Triton prepared in PBS and refrigerated overnight. The following day, the segments were washed in PBS (three washes) for 5 mins each wash. The segments were washed in secondary antibody for 2 hrs at room temperature in the dark. The antibodies were then washed with PBS (three washes). Glass coverslips were then mounted on the segments with ProLong Diamond Antifade Mountant (Thermo Fisher Scientific) and incubated them at room temperature overnight and then stored them in 4 degrees. Images were procured using a Leica confocal microscope (Buffalo Grove, IL).
# For hair cell count in whole mount preparations, two to three random areas from the basal turn from each treatment group separately were selected. Hair cells were counted in […] segments of the cochlea respectively. Counts were averaged across treatment group. This was further normalized as % of PBS (control) by taking the values of control as 100%.
# Wistar rats [1] = assay: Restoration of hearing after permanent threshold shifts (Example 10B); format: in vivo, rat; details: treatment after PTS at 4 weeks; oral capsaicin 5 mg/kg 3 days, ETA 1 mg/kg s.c. day 2, three weeks
# Description: FIG. 23A is a schematic showing the experimental paradigm used in Example 10B. Pre-treatment baseline ABRs were performed in naïve male Wistar rats. The rats were then used either as sham controls (no noise exposure) or exposed-noise (122 dB, OBN centered at 16 kHz for 1 hour). Post noise exposure ABRs were repeated at 4 weeks to establish permanent threshold shifts (PTS). […] Final ABR threshold values were evaluated at week 9 post noise exposure.
# Values shown in FIGS. 23A-23C and otherwise provided with respect to this Example 10B are expressed as the mean±SEM. Statistical significance was analyzed using the ANOVA and Tukey's host hoc analysis.
# UMSCC-10b cells = assay: SCID mouse xenograft model; format: in vivo
# Description: SCID mice (from Envigo, 5-6 weeks of age) were injected subcutaneously with 1.5×10^6 mycoplasma-free UMSCC 10B cells in one flank. […] At the time of each treatment, tumor volumes were calculated based on the formula: volume=width2×(length/2) [Jajoo et al.]. Mice were killed 24 h after the eleventh treatment. All procedures were performed in accordance with relevant guidelines and regulations of SIU School of Medicine.
# Wistar rats [2] = details: capsaicin TT 50 μl of 0.1 μM; Mukherjea et al., 2011; cited from earlier work
# rat cochlea = assay: Cochlear gene expression by q-PCR (cisplatin study); format: in vivo
# UB/OC1 cells = assay: Bax/Bcl-2 ratio in UB/OC1 cells; format: cell-based, mouse
structure (smiles),measurement,setting,value
"COc1cc(CNC(=O)CCCC/C=C/C(C)C)ccc1O [capsaicin, 8-methyl-N-vanillyl-trans-6-nonenamide]",stereociliary damage induced by cisplatin,"outer hair cells (OHCs); SEM, oral capsaicin",significantly reduced
same,loss of outer hair cells,"outer hair cells (OHCs); SEM, trans-tympanic capsaicin pretreatment, cisplatin",no significant loss of outer hair cells
same,hair cell damage,"outer hair cells (OHCs); whole mount, oral capsaicin alone",minimal hair cell damage
same,outer hair cell loss compared to control,"outer hair cells (OHCs); whole mount, oral capsaicin prior to cisplatin",no significant outer hair cell loss
same,average hearing threshold shifts at 9 weeks,Wistar rats [1],15-25 dB
same,cisplatin tumor growth curves,UMSCC-10b cells; oral capsaicin 0.5 mg/kg + cisplatin 2 mg/kg ip,shifted the cisplatin tumor growth curves to the right
same,"tumor growth (volume, size, weight)",UMSCC-10b cells; single agent: cisplatin 2 mg/kg ip or oral capsaicin 0.5 mg/kg,"decreased tumor size and weight, but not significantly"
same,duration of transient ABR threshold shift,Wistar rats [2],24 h
same,"expression of TRPV1, NOX3 and iNOS",rat cochlea; TT-capsaicin 24 h prior to cisplatin,significant reduction
same,"expression of TRPV1, NOX3 and iNOS",rat cochlea; capsaicin alone,did not significantly change
same,CB2 receptor expression in the rat cochlea,rat cochlea; oral capsaicin,increased the expression of CB2 receptor
same,"Bax/Bcl-2 ratio, rat cochlea",rat cochlea; oral capsaicin prior to cisplatin,significant decrease
same,"Bax/Bcl-2 ratio, rat cochlea",rat cochlea; single agent (cisplatin or oral capsaicin alone),less than half of that observed following cisplatin alone
same,Bax/Bcl-2 ratios,UB/OC1 cells,1.1±0.2
